Data as given in ChEMBL document CHEMBL1201862, “PubChem BioAssay data set” (2004).
Calls of active or inactive are those of the source.

What was measured:
Bcl-2-related protein A1 [1] = molecular target: T1, Bcl-2-related protein A1 (Mus musculus, UniProt Q07440); test: Bfl-1 binding inhibitors, SAR follow-up, biochemical, fluorescence polarization (AID 1070)
T1 sequence (Q07440 whole entry): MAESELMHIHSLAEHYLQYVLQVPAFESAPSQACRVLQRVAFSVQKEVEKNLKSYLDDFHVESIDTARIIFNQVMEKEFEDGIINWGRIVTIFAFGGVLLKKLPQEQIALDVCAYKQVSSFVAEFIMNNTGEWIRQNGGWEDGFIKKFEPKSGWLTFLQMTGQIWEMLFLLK

Bcl-2-related protein A1 [2] = molecular target: T1, Bcl-2-related protein A1; test: Bfl-1 inhibitors blocking BH3 peptide binding, confirmation, biochemical, TR-FRET, mouse Bfl-1 (AID 621);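 also: TR-FRET binding of GST-Bfl-1 to FITC-labelled Bid peptide via terbium antibody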
Protein skinhead-1 = molecular target: T2, Protein skinhead-1 (Caenorhabditis elegans, UniProt P34707); type: functional
T2 sequence (P34707 whole entry): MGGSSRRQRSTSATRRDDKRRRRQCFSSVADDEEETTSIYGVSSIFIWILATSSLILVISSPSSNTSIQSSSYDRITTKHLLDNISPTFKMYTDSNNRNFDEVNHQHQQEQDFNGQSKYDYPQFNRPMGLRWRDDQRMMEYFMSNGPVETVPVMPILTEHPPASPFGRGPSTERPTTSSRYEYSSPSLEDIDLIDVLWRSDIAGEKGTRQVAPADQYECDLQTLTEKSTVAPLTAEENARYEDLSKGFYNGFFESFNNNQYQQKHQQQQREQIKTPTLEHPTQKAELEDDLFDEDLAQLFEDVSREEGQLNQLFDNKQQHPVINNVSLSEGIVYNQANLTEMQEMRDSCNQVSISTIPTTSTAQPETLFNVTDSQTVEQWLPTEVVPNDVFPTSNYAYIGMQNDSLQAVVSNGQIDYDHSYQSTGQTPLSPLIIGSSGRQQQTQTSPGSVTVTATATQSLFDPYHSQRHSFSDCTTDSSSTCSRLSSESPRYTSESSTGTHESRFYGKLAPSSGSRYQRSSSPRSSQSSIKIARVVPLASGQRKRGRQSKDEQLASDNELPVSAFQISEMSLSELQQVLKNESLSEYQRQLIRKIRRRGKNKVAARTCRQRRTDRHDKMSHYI

[3] = molecular target: T3, Oxysterols receptor LXR-beta (Homo sapiens, UniProt P55055); type: functional, cell-based;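 also: agonist activity at LXR measured by a cell-based luminescence readout across a dose range, run as a counterscreen for daf-12 agonists; HEK293 cells with Gal4-LXR fusion and GAL4-driven luciferase reporter; potency for activation of Gal4-LXR reporter so compounds are agonists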
T3 sequence (P55055 whole entry): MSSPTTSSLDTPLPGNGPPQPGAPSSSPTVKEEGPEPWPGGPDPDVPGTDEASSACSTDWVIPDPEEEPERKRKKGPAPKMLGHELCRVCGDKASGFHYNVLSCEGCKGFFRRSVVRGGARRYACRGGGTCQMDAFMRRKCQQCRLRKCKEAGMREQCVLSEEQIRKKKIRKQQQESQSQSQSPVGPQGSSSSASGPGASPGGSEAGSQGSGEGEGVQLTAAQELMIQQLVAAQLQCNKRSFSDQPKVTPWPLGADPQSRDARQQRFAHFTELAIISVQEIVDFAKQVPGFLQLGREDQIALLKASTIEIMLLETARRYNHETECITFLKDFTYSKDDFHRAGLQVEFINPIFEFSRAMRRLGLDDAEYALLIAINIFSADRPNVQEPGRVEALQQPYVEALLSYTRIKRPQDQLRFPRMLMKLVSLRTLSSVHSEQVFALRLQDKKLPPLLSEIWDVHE

cells = type: functional
[4] = THP-1 cell cytotoxicity, dose response, cytotoxicity control for non-replicating M. tuberculosis project (AID 489025); type: functional
Paired box protein Pax-8 = Paired box protein Pax-8 (Homo sapiens, UniProt Q06710); test: inhibitors of PAX8-driven TPO luciferase reporter, dose response, RMG-I cells, cherry-pick (AID 687027); type: functional, cell-based;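 also: luciferase reporter driven by Pax8 target thyroperoxidase promoter measured by SteadyGlo luminescence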
[5] = Vero E6 cell cytotoxicity, dose response, cytotoxicity control for non-replicating M. tuberculosis project, secondary assay (AID 492998); type: functional, VeroE6; settings: Vero C1008
[6] = Luminescence Cell-Based Dose Retest to Confirm Inhibitors of Cancer Stem Cells. [Related pubchem assays (depositor defined):AID2717, AID2721]; type: functional; settings: Homo sapiens
[7] = HepG2 cell cytotoxicity, dose response, cytotoxicity control for non-replicating M. tuberculosis project (AID 489018); type: functional; settings: Mycobacterium tuberculosis
[8] = Luminescence-based dose response cell-based high throughput screening assay for cytotoxic compounds using the IEC-6 intestinal epithelial cell line. [Related pubchem assays: 1858 (Summary AID.), 1825 (Counterscreen.), 1907 (Confirmation screen.)]; type: functional
[9] = Luminescent dose response cell-based high throughput screening assay for inhibitors of the Janus kinase 2 mutant JAK2V617F. [Related pubchem assays: 1446 (Primary screen.), 1521 (Confirmation assay.), 1486 (Counter screen.)]; type: functional
[10] = molecular target: Voltage-gated inwardly rectifying potassium channel KCNH2 (Homo sapiens, UniProt Q12809); test: hERG protection from proarrhythmic block, potency, dose response, cell-based, thallium flux (AID 2121); type: ADME
Sequence of Voltage-gated inwardly rectifying potassium channel KCNH2 (Q12809 whole entry): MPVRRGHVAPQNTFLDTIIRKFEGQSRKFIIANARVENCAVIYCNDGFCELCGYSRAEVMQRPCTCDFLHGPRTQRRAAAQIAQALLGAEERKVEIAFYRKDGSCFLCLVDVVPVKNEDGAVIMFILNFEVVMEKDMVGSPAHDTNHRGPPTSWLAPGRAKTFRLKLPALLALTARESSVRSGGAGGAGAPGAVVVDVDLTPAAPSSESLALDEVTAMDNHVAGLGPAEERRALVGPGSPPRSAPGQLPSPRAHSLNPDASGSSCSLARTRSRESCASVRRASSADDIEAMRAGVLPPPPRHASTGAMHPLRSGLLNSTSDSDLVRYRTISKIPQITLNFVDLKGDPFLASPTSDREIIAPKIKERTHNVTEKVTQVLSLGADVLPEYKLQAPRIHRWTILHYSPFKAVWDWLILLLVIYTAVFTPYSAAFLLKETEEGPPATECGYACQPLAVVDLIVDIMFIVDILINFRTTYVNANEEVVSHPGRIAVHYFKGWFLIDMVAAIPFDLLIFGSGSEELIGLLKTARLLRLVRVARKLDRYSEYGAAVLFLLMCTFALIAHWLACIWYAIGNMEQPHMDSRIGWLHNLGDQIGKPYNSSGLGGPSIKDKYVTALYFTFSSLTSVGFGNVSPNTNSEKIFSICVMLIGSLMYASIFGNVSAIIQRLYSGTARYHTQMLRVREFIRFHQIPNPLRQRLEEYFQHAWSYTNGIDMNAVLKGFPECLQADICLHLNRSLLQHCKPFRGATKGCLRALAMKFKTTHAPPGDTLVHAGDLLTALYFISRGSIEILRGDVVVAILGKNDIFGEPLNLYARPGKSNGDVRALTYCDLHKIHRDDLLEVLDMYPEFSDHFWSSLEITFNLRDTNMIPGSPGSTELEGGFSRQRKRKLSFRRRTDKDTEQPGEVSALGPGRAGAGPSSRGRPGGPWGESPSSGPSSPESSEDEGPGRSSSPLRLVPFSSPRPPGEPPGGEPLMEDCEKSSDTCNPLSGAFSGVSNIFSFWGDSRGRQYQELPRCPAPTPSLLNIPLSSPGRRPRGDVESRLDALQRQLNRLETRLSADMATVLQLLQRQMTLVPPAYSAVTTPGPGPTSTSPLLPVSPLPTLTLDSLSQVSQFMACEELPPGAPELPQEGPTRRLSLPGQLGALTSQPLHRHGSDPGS

14-3-3 protein gamma = 14-3-3 protein gamma (Homo sapiens, UniProt P61981); test: modulators of 14-3-3 gamma client binding – dose response (AID 711); type: functional
[11] = molecular target: Peroxisome proliferator-activated receptor gamma/Nuclear receptor corepressor 2 (Homo sapiens, UniProt P37231+Q9Y618); test: Counterscreen for NR2E3 inverse agonists: TR-FRET-based biochemical high throughput dose response assay to identify inverse agonists of the interaction between peroxisome proliferator-activated receptor gamma (PPARg) and nuclear receptor co-repressor 2 (NCOR2).; type: functional
[12] = molecular target: Photoreceptor-specific nuclear receptor (Homo sapiens, UniProt Q9Y5X4); test: NR2E3 inverse agonists, dose response, biochemical, TR-FRET (AID 463256); type: functional
[13] = molecular target: T4, Apoptotic protease-activating factor 1 (Homo sapiens, UniProt O14727); type: functional
T4 sequence (O14727 whole entry): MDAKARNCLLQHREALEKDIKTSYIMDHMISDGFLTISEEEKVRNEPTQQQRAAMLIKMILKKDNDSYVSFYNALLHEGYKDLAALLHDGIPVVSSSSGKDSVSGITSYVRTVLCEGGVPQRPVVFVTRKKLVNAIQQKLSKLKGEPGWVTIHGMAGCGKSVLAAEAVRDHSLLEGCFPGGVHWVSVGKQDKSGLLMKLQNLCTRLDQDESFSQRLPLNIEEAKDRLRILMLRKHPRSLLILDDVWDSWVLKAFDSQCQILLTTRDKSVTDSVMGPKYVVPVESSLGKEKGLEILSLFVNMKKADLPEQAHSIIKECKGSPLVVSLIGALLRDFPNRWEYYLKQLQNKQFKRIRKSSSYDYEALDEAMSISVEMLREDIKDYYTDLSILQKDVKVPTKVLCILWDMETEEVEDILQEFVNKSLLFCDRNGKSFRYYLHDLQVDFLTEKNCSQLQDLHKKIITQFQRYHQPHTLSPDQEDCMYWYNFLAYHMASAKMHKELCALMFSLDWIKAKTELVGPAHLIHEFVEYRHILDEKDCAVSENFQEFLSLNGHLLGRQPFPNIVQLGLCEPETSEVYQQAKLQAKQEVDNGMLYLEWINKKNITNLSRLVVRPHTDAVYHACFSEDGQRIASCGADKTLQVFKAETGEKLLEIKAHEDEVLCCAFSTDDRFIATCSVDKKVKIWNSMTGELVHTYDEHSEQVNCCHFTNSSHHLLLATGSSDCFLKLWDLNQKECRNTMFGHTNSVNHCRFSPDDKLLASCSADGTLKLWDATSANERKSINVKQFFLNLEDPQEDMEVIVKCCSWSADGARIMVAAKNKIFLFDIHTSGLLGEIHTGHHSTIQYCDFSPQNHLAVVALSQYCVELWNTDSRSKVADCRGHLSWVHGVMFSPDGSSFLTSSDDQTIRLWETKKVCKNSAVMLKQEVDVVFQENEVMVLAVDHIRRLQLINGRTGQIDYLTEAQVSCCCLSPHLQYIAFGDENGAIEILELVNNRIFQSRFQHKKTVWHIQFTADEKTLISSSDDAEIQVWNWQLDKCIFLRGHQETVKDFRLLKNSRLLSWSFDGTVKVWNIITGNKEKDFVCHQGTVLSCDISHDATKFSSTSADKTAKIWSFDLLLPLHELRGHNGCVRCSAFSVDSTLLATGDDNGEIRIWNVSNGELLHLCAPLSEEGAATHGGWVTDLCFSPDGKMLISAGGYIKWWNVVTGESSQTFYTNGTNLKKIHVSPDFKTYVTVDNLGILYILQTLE

fMet-Leu-Phe receptor = molecular target: T5, fMet-Leu-Phe receptor (Homo sapiens, UniProt P21462); test: FPR ligands, dose response (AID 519); type: functional
T5 sequence (P21462 whole entry): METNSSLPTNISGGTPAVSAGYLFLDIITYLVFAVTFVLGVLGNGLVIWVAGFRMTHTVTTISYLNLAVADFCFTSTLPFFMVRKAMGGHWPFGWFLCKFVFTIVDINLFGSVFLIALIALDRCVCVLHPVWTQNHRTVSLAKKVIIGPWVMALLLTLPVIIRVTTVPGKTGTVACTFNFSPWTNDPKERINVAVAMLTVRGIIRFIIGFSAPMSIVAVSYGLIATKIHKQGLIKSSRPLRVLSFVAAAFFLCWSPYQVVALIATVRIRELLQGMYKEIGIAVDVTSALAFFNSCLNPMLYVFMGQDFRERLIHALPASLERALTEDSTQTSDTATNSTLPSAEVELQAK

Nonstructural protein 1 = Nonstructural protein 1 (Influenza A virus, UniProt Q194T2); type: functional, Influenza A virus (A/California/07/2009(H1N1))
Sequence of Nonstructural protein 1 (Q194T2 whole entry): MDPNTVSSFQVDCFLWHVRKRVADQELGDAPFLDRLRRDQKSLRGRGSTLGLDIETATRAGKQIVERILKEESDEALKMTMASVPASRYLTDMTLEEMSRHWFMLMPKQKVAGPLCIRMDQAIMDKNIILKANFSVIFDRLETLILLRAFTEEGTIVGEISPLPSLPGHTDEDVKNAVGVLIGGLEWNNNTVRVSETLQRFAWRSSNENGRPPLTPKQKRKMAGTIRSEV

Bcl-2-like protein 10 = Bcl-2-like protein 10 (Homo sapiens, UniProt Q9HD36); test: displacers of TR3 peptide from Bcl-B, primary screen, selectivity assay for Bfl-1 inhibitor project, biochemical, fluorescence polarization, FITC-TR3 peptide (AID 748);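 also: fluorescence polarization from a fluorescein-labelled TR3 peptide binding purified Bcl-B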
Sequence of Bcl-2-like protein 10 (Q9HD36 whole entry): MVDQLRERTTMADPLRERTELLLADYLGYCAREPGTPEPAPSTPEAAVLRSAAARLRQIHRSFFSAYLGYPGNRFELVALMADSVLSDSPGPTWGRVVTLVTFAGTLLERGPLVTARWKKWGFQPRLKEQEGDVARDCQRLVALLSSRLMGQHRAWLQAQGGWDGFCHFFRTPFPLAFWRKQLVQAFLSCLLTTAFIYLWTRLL

Estrogen receptor beta = Estrogen receptor beta (Homo sapiens, UniProt Q92731); test: ERβ–SRC-3 coactivator interaction inhibitors, confirmation, orthogonal assay, biochemical, ELISA, streptavidin-HRP readout (AID 1060)
Sequence of Estrogen receptor beta (Q92731 whole entry): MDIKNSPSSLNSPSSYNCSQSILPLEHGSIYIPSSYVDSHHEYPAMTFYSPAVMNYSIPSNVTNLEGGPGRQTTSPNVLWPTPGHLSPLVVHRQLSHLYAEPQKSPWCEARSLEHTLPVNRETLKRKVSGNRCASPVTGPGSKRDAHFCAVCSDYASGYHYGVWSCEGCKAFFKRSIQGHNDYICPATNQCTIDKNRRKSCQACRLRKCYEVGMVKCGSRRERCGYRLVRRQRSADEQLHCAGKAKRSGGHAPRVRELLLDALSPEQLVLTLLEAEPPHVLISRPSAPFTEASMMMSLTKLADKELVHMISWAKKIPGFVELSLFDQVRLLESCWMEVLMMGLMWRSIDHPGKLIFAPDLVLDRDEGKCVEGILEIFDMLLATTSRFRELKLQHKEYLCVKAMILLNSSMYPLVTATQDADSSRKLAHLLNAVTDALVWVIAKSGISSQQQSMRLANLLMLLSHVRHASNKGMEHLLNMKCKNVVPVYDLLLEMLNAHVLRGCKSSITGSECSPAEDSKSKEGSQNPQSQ

Large T antigen = Large T antigen (Simian virus 40, UniProt P03070); type: functional, Betapolyomavirus macacae;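 also: Confirmatory-stage PubChem screen for compounds that inhibit SV40 T antigen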
Sequence of Large T antigen (P03070 whole entry): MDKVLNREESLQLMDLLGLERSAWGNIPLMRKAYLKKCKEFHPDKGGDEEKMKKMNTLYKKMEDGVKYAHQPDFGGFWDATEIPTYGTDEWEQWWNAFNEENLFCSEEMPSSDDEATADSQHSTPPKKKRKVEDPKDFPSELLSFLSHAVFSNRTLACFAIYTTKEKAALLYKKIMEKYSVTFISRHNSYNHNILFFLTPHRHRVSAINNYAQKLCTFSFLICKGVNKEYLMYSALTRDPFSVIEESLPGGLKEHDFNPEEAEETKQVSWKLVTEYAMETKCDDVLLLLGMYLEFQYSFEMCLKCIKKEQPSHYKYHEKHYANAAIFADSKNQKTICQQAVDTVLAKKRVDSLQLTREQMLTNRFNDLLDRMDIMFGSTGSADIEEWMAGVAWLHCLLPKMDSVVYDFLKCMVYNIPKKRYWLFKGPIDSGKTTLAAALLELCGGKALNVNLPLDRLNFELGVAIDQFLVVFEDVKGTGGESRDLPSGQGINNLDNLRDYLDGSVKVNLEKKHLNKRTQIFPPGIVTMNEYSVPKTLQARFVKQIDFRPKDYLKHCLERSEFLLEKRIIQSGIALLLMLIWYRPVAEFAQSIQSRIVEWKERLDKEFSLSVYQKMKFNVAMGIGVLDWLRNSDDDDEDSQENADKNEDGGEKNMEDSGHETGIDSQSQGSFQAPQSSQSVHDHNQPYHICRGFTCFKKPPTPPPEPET

[14] = molecular target: Luciferin 4-monooxygenase (Photinus pyralis, UniProt P08659); test: firefly luciferase enzyme inhibitors, dose response, biochemical, luminescence (AID 1891)
Sequence of Luciferin 4-monooxygenase (P08659 whole entry): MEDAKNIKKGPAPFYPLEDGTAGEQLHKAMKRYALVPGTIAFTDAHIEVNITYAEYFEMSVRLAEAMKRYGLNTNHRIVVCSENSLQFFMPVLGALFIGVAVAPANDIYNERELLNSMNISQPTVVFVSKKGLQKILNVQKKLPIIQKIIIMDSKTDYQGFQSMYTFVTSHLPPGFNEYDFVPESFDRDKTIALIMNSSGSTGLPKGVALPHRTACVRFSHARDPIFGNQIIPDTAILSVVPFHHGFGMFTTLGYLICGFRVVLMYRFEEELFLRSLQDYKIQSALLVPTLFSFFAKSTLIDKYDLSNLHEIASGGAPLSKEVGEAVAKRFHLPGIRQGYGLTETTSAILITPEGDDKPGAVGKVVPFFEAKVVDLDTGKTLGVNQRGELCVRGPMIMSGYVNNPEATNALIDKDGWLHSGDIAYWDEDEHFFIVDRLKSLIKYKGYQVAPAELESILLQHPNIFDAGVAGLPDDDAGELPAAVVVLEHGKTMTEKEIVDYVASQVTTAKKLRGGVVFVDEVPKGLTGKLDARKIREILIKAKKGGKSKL

[15] = Fluorescence Cell-Based Dose Response to Identify Inhibitors of Thrombin Receptor-Activating Peptide SFLLRN-Mediated P-Selectin Induction on Platelets. [Related pubchem assays: 1663 (Primary HTS), 1889 (retest at dose ), 1891 (counterscreen), 1678 (Project Summary)]; type: functional
[16] = Luminescence Cell-Based Dose Confirmation HTS to Identify Inhibitors of Platelet Dense Granule Release. [Related pubchem assays: 1663 (Primary HTS), 1678 (Summary of Project)]; type: functional
[17] = C. albicans growth with fluconazole, confirmation, fluorescence, retest (AID 2467); type: functional, cell-based
[18] = NIH-3T3 fibroblast cytotoxicity, dose response, cytotoxicity control, cell-based, fluorescence, Alamar Blue, secondary assay (AID 2327); type: functional;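 also: NIH-3T3 mouse fibroblasts cultured with fluconazole at 8 µg/mL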
Cytochrome P450 2C9 = Cytochrome P450 2C9 (Homo sapiens, UniProt P11712)
Sequence of Cytochrome P450 2C9 (P11712 whole entry): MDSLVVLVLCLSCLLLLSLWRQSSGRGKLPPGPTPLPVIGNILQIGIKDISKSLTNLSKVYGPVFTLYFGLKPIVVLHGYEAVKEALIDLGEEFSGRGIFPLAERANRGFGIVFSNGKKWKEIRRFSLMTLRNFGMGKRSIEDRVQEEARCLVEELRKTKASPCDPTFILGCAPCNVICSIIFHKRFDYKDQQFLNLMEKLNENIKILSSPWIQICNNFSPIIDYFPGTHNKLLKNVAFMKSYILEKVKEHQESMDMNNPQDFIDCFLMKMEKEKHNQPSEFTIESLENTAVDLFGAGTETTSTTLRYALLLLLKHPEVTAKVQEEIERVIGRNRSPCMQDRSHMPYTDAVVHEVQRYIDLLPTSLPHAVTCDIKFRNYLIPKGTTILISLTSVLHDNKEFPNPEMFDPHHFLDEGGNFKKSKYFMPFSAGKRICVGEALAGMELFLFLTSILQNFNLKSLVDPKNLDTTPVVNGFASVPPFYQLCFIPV

Cytochrome P450 1A2 = molecular target: T6, Cytochrome P450 1A2 (Homo sapiens, UniProt P05177);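 also: PubChem cytochrome P450 panel assay, CYP1A2 panel member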
T6 sequence (P05177 whole entry): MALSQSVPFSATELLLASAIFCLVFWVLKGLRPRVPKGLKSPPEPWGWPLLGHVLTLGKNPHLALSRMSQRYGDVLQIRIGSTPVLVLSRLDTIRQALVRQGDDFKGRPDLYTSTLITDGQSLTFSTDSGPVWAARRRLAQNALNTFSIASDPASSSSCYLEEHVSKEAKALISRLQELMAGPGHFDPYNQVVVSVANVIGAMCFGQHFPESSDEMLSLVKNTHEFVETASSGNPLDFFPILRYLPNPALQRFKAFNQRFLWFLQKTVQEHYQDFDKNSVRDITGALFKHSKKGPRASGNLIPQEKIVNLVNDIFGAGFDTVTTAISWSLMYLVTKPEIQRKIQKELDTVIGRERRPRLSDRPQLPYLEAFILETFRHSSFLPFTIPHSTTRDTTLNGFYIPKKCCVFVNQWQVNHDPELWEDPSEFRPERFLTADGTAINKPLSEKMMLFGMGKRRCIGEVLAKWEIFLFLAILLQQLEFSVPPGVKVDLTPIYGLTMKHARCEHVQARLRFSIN

Ephrin type-A receptor 4 = Ephrin type-A receptor 4 (Mus musculus, UniProt Q03137); test: inhibitors of EphA4 binding to KYL peptide, primary screen, biochemical, colorimetric, mouse EphA4 (AID 689); type: functional
Sequence of Ephrin type-A receptor 4 (Q03137 whole entry): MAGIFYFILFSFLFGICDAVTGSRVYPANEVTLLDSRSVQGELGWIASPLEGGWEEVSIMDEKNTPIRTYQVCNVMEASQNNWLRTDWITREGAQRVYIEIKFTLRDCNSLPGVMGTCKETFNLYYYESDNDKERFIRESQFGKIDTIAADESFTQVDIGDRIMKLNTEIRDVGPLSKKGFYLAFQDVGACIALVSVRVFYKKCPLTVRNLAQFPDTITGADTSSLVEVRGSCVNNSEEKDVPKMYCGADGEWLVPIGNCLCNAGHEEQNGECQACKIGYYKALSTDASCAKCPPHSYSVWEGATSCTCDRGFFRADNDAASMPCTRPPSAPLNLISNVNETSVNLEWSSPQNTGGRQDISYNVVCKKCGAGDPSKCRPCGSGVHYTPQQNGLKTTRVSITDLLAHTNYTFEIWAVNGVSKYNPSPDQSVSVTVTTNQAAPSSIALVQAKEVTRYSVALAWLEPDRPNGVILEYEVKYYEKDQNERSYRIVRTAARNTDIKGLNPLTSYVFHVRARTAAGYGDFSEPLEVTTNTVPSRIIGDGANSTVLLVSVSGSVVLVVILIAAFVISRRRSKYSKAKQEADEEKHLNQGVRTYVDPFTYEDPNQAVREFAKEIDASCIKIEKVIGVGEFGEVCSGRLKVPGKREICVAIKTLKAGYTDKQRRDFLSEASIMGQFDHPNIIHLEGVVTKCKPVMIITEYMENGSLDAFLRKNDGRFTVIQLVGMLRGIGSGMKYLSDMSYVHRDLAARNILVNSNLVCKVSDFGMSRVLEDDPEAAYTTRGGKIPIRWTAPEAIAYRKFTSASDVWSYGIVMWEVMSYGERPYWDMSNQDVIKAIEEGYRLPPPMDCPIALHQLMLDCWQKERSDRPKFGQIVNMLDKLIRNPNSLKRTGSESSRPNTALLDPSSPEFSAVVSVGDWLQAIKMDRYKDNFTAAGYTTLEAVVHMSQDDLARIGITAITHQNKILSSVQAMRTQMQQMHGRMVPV

## Fc1ccc(-n2nnc(-c3cccnc3Cl)n2)cc1
Bcl-2-related protein A1 [1]
  IC50: > 100 µM (not active)
Bcl-2-related protein A1 [2]
  IC50: > 100 µM (not active)
Protein skinhead-1
  IC50: 21 µM (active)
[3]
  EC50: > 67.5 µM (inactive)

## O=C(Nc1ccc(N2CCN(C(=O)c3cccs3)CC2)cc1)c1ccc([N+](=O)[O-])o1
cells
  IC50: < 0.1 µM (active)
[4]
  CC50: 1.18 µM (active)
Paired box protein Pax-8
  AC50: 1.96 µM (active)
[5]
  CC50: 1.46 µM (active)
[6]
  AC50: 1.5 µM (active)
[7]
  CC50: > 20 µM (active)
[8]
  IC50: 1.77 µM (active)

## O=S(=O)(c1cnc(Cl)c(Cl)c1)N1CCc2ccccc21
[9]
  IC50: 3.96 µM (active)

## C=CCN(CC=C)C(=S)NC(=O)/C=C/c1ccc(OC)cc1
[10]
  EC50: 3.01 µM (active)

## CNC(=O)C(Sc1ccccc1)c1ccccc1 (stereo not given)
14-3-3 protein gamma
  IC50: > 50 µM (not active)

## O=C(Nc1nccs1)c1cc(-c2ccccn2)nc2c(Cl)cccc12
[11]
  IC50: 2.89 µM (active)
[12]
  IC50: 3.87 µM (active)

## CCOC(=O)N1CCN(c2cc(NCCC(=O)O)c3c4c(onc24)-c2ccccc2C3=O)CC1
[13]
  IC50: 25.6 µM (active)
fMet-Leu-Phe receptor
  Ki: > 66.7 µM (inactive)
Nonstructural protein 1
  IC50: 20.3 µM (active)
Bcl-2-like protein 10
  IC50: 7.52 µM (active)
Estrogen receptor beta
  IC50: 5.41 µM (not active)
Large T antigen
  IC50: > 100 µM (active)

## COc1ccc(C(=O)Nc2ccc(N3CCOCC3)cc2)cc1OC
[14]
  EC50: 24.2 µM (active)
[15]
  EC50: > 100 µM (not active)
[16]
  EC50: 1.95 µM (active)

## O=C(O)c1ccccc1C(=O)NNc1ccc(F)cc1
[17]
  EC50: > 38 µM (not active)
[18]
  EC50: 25.5 µM (active)
Cytochrome P450 2C9
  AC50: 0.0251 µM (inconclusive)
Cytochrome P450 1A2
  AC50: 20 µM (inconclusive)
Ephrin type-A receptor 4
  IC50: > 100 µM (not active)
